Measured values taken from US9738652B2, “Spiro urea compounds as RSV antiviral compounds” (priority 2014, dated 2017).

Key:
[1] = test system: rgRSV224 virus; test: Antiviral activity: rgRSV224 (GFP) replication in HeLa cells; settings: human respiratory syncytial virus, 72 h, read-out: RSV HELA pEC50 (converted)
Description: Black 384-well clear-bottom microtiter plates (Corning, Amsterdam, The Netherlands) were filled via acoustic drop ejection using the echo liquid handler (Labcyte, Sunnyvale, Calif.). 200 nL of compound stock solutions (100% DMSO) were transferred to the assay plates. 9 serial 4-fold dilutions of compound were made, creating per quadrant the same compound concentration. The assay was initiated by adding 10 μL of culture medium to each well (RPMI medium without phenol red, 10% FBS-heat inactivated, 0.04% gentamycin (50 mg/mL). All addition steps are done by using a multidrop dispenser (Thermo Scientific, Erembodegem, Belgium). Next, rgRSV224 virus (MOI=1) diluted in culture medium was added to the plates. rgRSV224 virus is an engineered virus that includes an additional GFP gene (Hallak L K, Spillmann D, Collins P L, Peeples M E. Glycosaminoglycan sulfation requirements for respiratory syncytial virus infection; Journal of virology (2000), 74(22), 10508-13) and was in-licensed from the NIH (Bethesda, Md., USA). Finally, 20 μL of a HeLa cell suspension (3,000 cells/well) were plated. Medium, virus- and mock-infected controls were included in each test. The wells contain 0.05% DMSO per volume. Cells were incubated at 37° C. in a 5% CO2 atmosphere. Three days post-virus exposure, viral replication was quantified by measuring GFP expression in the cells by an in house developed MSM laser microscope (Tibotec, Beerse, Belgium). The EC50 was defined as the 50% inhibitory concentration for GFP expression. In parallel, compounds were incubated for three days in a set of white 384-well microtiter plates (Corning) and the cytotoxicity of compounds in HeLa cells was determined by measuring the ATP content of the cells using the ATPlite kit (Perkin Elmer, Zaventem, Belgium) according to the manufacturer's instructions. The CC50 was defined as the 50% concentration for cytotoxicity.

[2] = Cytotoxicity in HeLa cells (ATPlite, CC50) used for selectivity index; settings: human
Description: The wells contain 0.05% DMSO per volume. Cells were incubated at 37° C. in a 5% CO2 atmosphere. […] In parallel, compounds were incubated for three days in a set of white 384-well microtiter plates (Corning) and the cytotoxicity of compounds in HeLa cells was determined by measuring the ATP content of the cells using the ATPlite kit (Perkin Elmer, Zaventem, Belgium) according to the manufacturer's instructions. The CC50 was defined as the 50% concentration for cytotoxicity.

`N#CCCCn1c(CN2C(=O)C3(CN(C(=O)NC4CCOCC4)C3)c3ccccc32)cc2cc(Cl)ccc21` [Co. No. 6, 1′-[[5-chloro-1-(3-cyanopropyl)indol-2-yl]methyl]-2′-oxo-N-tetrahydropyran-4-yl-spiro[azetidine-3,3′-indoline]-1-carboxamide] showed an EC50 [1] of 0.316 nM and a selectivity ratio at 3 days [2] of 100000.

In the case of `CC(C)NC(=O)N1CC2(C1)C(=O)N(Cc1nc3nc(Cl)ccc3n1CCCCF)c1ccccc12` [Co. No. 20, 1′-[[5-chloro-1-(4-fluorobutyl)imidazo[4,5-b]pyridin-2-yl]methyl]-N-isopropyl-2′-oxo-spiro[azetidine-3,3′-indoline]-1-carboxamide], the EC50 [1] is reported as 1.26 nM and the selectivity ratio at 3 days [2] is reported as over 80200.

Compound `CC(C)NC(=O)N1CC2(C1)C(=O)N(Cc1nc3cc(Cl)ccc3n1CCCS(C)(=O)=O)c1ccccc12` [Co. No. 18, 1′-[[5-chloro-1-(3-methylsulfonylpropyl)benzimidazol-2-yl]methyl]-N-isopropyl-2′-oxo-spiro[azetidine-3,3′-indoline]-1-carboxamide] has an EC50 [1] of 0.0204 nM and a selectivity ratio at 3 days [2] of over 4.93e+06.

With `O=C(NC1CC(O)C1)N1CC2(C1)C(=O)N(Cc1nc3nc(Cl)ccc3n1CCCC(F)(F)F)c1ccccc12` (stereo not shown) [Co. No. 24, 1′[[5-chloro-1-(4,4,4-trifluorobutyl)imidazo[4,5-b]pyridin-2-yl]methyl]-N-(3-hydroxycyclobutyl)-2′-oxo-spiro[azetidine-3,3′-indoline]-1-carboxamide] the EC50 [1] was 1.32 nM and the selectivity ratio at 3 days [2] was over 75400.

With `CNC(=O)N1CCC2(CC1)C(=O)N(Cc1cc3cc(Cl)ccc3n1CCCC#N)c1cnccc12` [Co. No. 25, 1′-[[5-chloro-1-(3-cyanopropyl)indol-2-yl]methyl]-N-methyl-2′-oxo-spiro[piperidine-4,3′-pyrrolo[2,3-c]pyridine]-1-carboxamide] the EC50 [1] was 0.178 nM and the selectivity ratio at 3 days [2] was over 565000.

`CC(C)(CO)NC(=O)N1CC2(C1)C(=O)N(Cc1cc3cc(Cl)ccc3n1CCCS(C)(=O)=O)c1ccccc12` [Co. No. 13, 1′-[[5-chloro-1-(3-methylsulfonylpropyl)indol-2-yl]methyl]-N-(2-hydroxy-1,1-dimethyl-ethyl)-2′-oxo-spiro[azetidine-3,3′-indoline]-1-carboxamide] gave an EC50 [1] of 1 nM and a selectivity ratio at 3 days [2] of 43400.

Work on `CC(C)(C)OC(=O)N1CCC(NC(=O)N2CC3(C2)C(=O)N(Cc2cc4cc(Cl)ccc4n2CCCC#N)c2ccccc23)CC1` [Co. No. 2, tert-butyl 4-[[1′-[[5-chloro-1-(3-cyanopropyl)indol-2-yl]methyl]-2′-oxo-spiro[azetidine-3,3′-indoline]-1-carbonyl]amino]piperidine-1-carboxylate] yielded an EC50 [1] of 2 nM and a selectivity ratio at 3 days [2] of over 50000.

Compound `CC(C)NC(=O)N1CCC2(CC1)C(=O)N(Cc1cc3cc(Cl)ccc3n1CCCS(C)(=O)=O)c1cnccc12` [Co. No. 27, 1′-[[5-chloro-1-(3-methylsulfonylpropyl)indol-2-yl]methyl]-N-isopropyl-2′-oxo-spiro[piperidine-4,3′-pyrrolo[2,3-c]pyridine]-1-carboxamide] has an EC50 [1] of 0.257 nM and a selectivity ratio at 3 days [2] of 300000.

With `N#CCCCn1c(CN2C(=O)C3(CN(C(=O)N[C@H]4C[C@@H](O)C4)C3)c3ccccc32)cc2cc(Cl)ccc21` [Co. No. 8, 1′-[[5-chloro-1-(3-cyanopropyl)indol-2-yl]methyl]-N-(cis-3-hydroxycyclobutyl)-2′-oxo-spiro[azetidine-3,3′-indoline]-1-carboxamide] the EC50 [1] was under 0.153 nM and the selectivity ratio at 3 days [2] was over 232000.

`N#CCCCn1c(CN2C(=O)C3(CN(C(=O)NC4CCN(CC(F)(F)F)CC4)C3)c3ccccc32)cc2cc(Cl)ccc21` [Co. No. 4, 1′-[[5-chloro-1-(3-cyanopropyl)indol-2-yl]methyl]-2′-oxo-N-[1-(2,2,2-trifluoroethyl)-4-piperidyl]spiro[azetidine-3,3′-indoline]-1-carboxamide] showed an EC50 [1] of 1 nM and a selectivity ratio at 3 days [2] of 100000.

Work on `N#CCCCn1c(CN2C(=O)C3(CN(C(=O)NC4CCNCC4)C3)c3ccccc32)cc2cc(Cl)ccc21` [Co. No. 3, 1′-[[5-chloro-1-(3-cyanopropyl)indol-2-yl]methyl]-2′-oxo-N-(4-piperidyl)spiro[azetidine-3,3′-indoline]-1-carboxamide] yielded an EC50 [1] of 0.631 nM and a selectivity ratio at 3 days [2] of 158000.

`CS(=O)(=O)CCCn1c(CN2C(=O)C3(CN(C(=O)NCC(F)(F)F)C3)c3ccccc32)cc2cc(Cl)ccc21` [Co. No. 12, 1′-[[5-chloro-1-(3-methylsulfonylpropyl)indol-2-yl]methyl]-2′-oxo-N-(2,2,2-trifluoroethyl)spiro[azetidine-3,3′-indoline]-1-carboxamide] gave an EC50 [1] of 0.269 nM and a selectivity ratio at 3 days [2] of 86900.

`CC(CO)NC(=O)N1CC2(C1)C(=O)N(Cc1cc3cc(Cl)ccc3n1CCCS(C)(=O)=O)c1ccccc12` (stereo not shown) [Co. No. 14, 1′-[[5-chloro-1-(3-methylsulfonylpropyl)indol-2-yl]methyl]-N-(2-hydroxy-1-methyl-ethyl)-2′-oxo-spiro[azetidine-3,3′-indoline]-1-carboxamide] gave an EC50 [1] of 0.575 nM and a selectivity ratio at 3 days [2] of 98200.

Compound `CN1CCC(NC(=O)N2CC3(C2)C(=O)N(Cc2cc4cc(Cl)ccc4n2CCCC#N)c2ccccc23)CC1` [Co. No. 5, 1′-[[5-chloro-1-(3-cyanopropyl)indol-2-yl]methyl]-N-(1-methyl-4-piperidyl)-2′-oxo-spiro[azetidine-3,3′-indoline]-1-carboxamide] has an EC50 [1] of 3.16 nM and a selectivity ratio at 3 days [2] of 10000.

For `CS(=O)(=O)CCCn1c(CN2C(=O)C3(CN(C(=O)NCCN4CCOCC4)C3)c3ccccc32)cc2cc(Cl)ccc21` [Co. No. 16, 1′-[[5-chloro-1-(3-methylsulfonylpropyl)indol-2-yl]methyl]-N-(2-morpholinoethyl)-2′-oxo-spiro[azetidine-3,3′-indoline]-1-carboxamide], the EC50 [1] was 0.339 nM and the selectivity ratio at 3 days [2] was 159000.

For `CN(C)CCN(C)C(=O)N1CC2(C1)C(=O)N(Cc1cc3cc(Cl)ccc3n1CCCS(C)(=O)=O)c1ccccc12` [Co. No. 15, 1′-[[5-chloro-1-(3-methylsulfonylpropyl)indol-2-yl]methyl]-N-[2-(dimethylamino)ethyl]-N-methyl-2′-oxo-spiro[azetidine-3,3′-indoline]-1-carboxamide], the EC50 [1] was 7.59 nM and the selectivity ratio at 3 days [2] was 2570.

With `CC(C)NC(=O)N1CCC2(CC1)C(=O)N(Cc1nc3cc(Cl)ccc3n1CCCC#N)c1cnccc12` [Co. No. 29, 1′-[[5-chloro-1-(3-cyanopropyl)benzimidazol-2-yl]methyl]-N-isopropyl-2′-oxo-spiro[piperidine-4,3′-pyrrolo[2,3-c]pyridine]-1-carboxamide] the EC50 [1] was 0.0245 nM and the selectivity ratio at 3 days [2] was over 4.11e+06.

`CS(=O)(=O)CCCn1c(CN2C(=O)C3(CN(C(=O)N[C@H]4C[C@H](O)C4)C3)c3ccccc32)cc2cc(Cl)ccc21` [Co. No. 11, 1′-[[5-chloro-1-(3-methylsulfonylpropyl)indol-2-yl]methyl]-N-(trans-3-hydroxycyclobutyl)-2′-oxo-spiro[azetidine-3,3′-indoline]-1-carboxamide] showed an EC50 [1] of 0.245 nM and a selectivity ratio at 3 days [2] of 300000.

Work on `CN(C)CCNC(=O)N1CC2(C1)C(=O)N(Cc1cc3cc(Cl)ccc3n1CCCS(C)(=O)=O)c1ccccc12` [Co. No. 17, 1′-[[5-chloro-1-(3-methylsulfonylpropyl)indol-2-yl]methyl]-N-[2-(dimethylamino)ethyl]-2′-oxo-spiro[azetidine-3,3′-indoline]-1-carboxamide] yielded an EC50 [1] of 1.26 nM and a selectivity ratio at 3 days [2] of 39300.

For `O=C(NC1CC(O)C1)N1CC2(C1)C(=O)N(Cc1nc3nc(Cl)ccc3n1CCCCF)c1ccccc12` (stereo not shown) [Co. No. 21, 1′-[[5-chloro-1-(4-fluorobutyl)imidazo[4,5-b]pyridin-2-yl]methyl]-N-(3-hydroxycyclobutyl)-2′-oxo-spiro[azetidine-3,3′-indoline]-1-carboxamide], the EC50 [1] was 1.41 nM and the selectivity ratio at 3 days [2] was over 71400.

Work on `N#CCCCn1c(CN2C(=O)C3(CN(C(=O)N[C@H]4C[C@H](O)C4)C3)c3ccccc32)cc2cc(Cl)ccc21` [Co. No. 9, 1′-[[5-chloro-1-(3-cyanopropyl)indol-2-yl]methyl]-N-(trans-3-hydroxycyclobutyl)-2′-oxo-spiro[azetidine-3,3′-indoline]-1-carboxamide] yielded an EC50 [1] of under 0.153 nM and a selectivity ratio at 3 days [2] of over 254000.

For `CC(C)NC(=O)N1CC2(C1)C(=O)N(Cc1nc3cc(Cl)ccc3n1CCCC#N)c1ccccc12` [Co. No. 19, 1′-[[5-chloro-1-(3-cyanopropyl)benzimidazol-2-yl]methyl]-N-isopropyl-2′-oxo-spiro[azetidine-3,3′-indoline]-1-carboxamide], the EC50 [1] was 0.0912 nM and the selectivity ratio at 3 days [2] was over 1.11e+06.

`O=C(NC1CCOCC1)N1CC2(C1)C(=O)N(Cc1nc3nc(Cl)ccc3n1CCCC(F)(F)F)c1ccccc12` [Co. No. 23, 1′-[[5-chloro-1-(4,4,4-trifluorobutyl)imidazo[4,5-b]pyridin-2-yl]methyl]-2′-oxo-N-tetrahydropyran-4-yl-spiro[azetidine-3,3′-indoline]-1-carboxamide] showed an EC50 [1] of 1.62 nM and a selectivity ratio at 3 days [2] of over 61800.

With `CC(C)NC(=O)N1CC2(C1)C(=O)N(Cc1cc3cc(Cl)ccc3n1CCCS(C)(=O)=O)c1ccccc12` [Co. No. 1, 1′-[[5-chloro-1-(3-methylsulfonylpropyl)indol-2-yl]methyl]-N-isopropyl-2′-oxo-spiro[azetidine-3,3′-indoline]-1-carboxamide] the EC50 [1] was 0.0891 nM and the selectivity ratio at 3 days [2] was 357000.

Work on `CS(=O)(=O)CCCn1c(CN2C(=O)C3(CN(C(=O)N[C@H]4C[C@@H](O)C4)C3)c3ccccc32)cc2cc(Cl)ccc21` [Co. No. 10, 1′-[[5-chloro-1-(3-methylsulfonylpropyl)indol-2-yl]methyl]-N-(cis-3-hydroxycyclobutyl)-2′-oxo-spiro[azetidine-3,3′-indoline]-1-carboxamide] yielded an EC50 [1] of under 0.17 nM and a selectivity ratio at 3 days [2] of over 505000.

With `N#CCCCn1c(CN2C(=O)C3(CN(C(=O)NC4CC(O)C4)C3)c3ccccc32)cc2cc(Cl)ccc21` (stereo not shown) [Co. No. 7, 1′-[[5-chloro-1-(3-cyanopropyl)indol-2-yl]methyl]-N-(3-hydroxycyclobutyl)-2′-oxo-spiro[azetidine-3,3′-indoline]-1-carboxamide] the EC50 [1] was 0.407 nM and the selectivity ratio at 3 days [2] was 103000.
